Reference: ChEMBL document CHEMBL5365510, “Discovery of Novel, Thienopyridine-Based Tyrosine Kinase Inhibitors Targeting Tumorigenic RON Splice Variants” (ACS Med Chem Lett, 2023)
The source made the active and inactive calls. No cut-off for these calls is given here.

Columns and labels:
HT-29 [1] = experiment: Antiproliferative activity against human HT-29 cells harbouring wild-type KRAS and RON delta 160 assessed as cell growth inhibition measured after 72 hrs by MTS assay; format: functional
KM12C [2] = experiment: Antiproliferative activity against human KM12-C cells harbouring wild-type KRAS and RON delta 160 assessed as cell growth inhibition measured after 72 hrs by MTS assay; format: functional
SW-620 = experiment: Antiproliferative activity against human SW620 cells harbouring KRAS G12 V mutant and RON delta 155 assessed as cell growth inhibition measured after 72 hrs by MTS assay; format: functional
[3] = target: T1, Macrophage-stimulating protein receptor (Homo sapiens, UniProt Q04912); experiment: Inhibition of N-terminal GST-tagged human recombinant RON (979 to 1400(end) residues) expressed in Sf21 cells incubated for 20 mins followed by ATP addition measured after 60 mins by TR-FRET based LanthaScreen kinase assay
CAPAN-1 = experiment: Antiproliferative activity against human CAPAN-1 cells harbouring KRAS G12V mutant and RON delta 155 assessed as cell growth inhibition measured after 72 hrs by MTS assay; format: functional
SW480 = experiment: Antiproliferative activity against human SW480 cells harbouring KRAS G12V mutant and RON delta 155 assessed as cell growth inhibition measured after 72 hrs by MTS assay; format: functional
MIA PaCa-2 = experiment: Antiproliferative activity against human MIA PaCa-2 cells harbouring KRAS G12C mutant and RON delta 160 assessed as cell growth inhibition measured after 72 hrs by MTS assay; format: functional
PANC-1 = experiment: Antiproliferative activity against human PANC-1 cells harbouring KRAS G12D mutant and RON delta 155 assessed as cell growth inhibition measured after 72 hrs by MTS assay; format: functional
PANC-03-27 = experiment: Antiproliferative activity against human Panc 03.27 cells harbouring KRAS G12V mutant and RON delta 155 assessed as cell growth inhibition measured after 72 hrs by MTS assay; format: functional
[4] = Antitumor activity against patient derived Colorectal cancer cell harbouring wild-type KRAS and RON delta 160 xenografted in BALB/c mouse assessed as tumor growth inhibition at 10 mg/kg, po qd measured after 28 days; format: functional; settings: Homo sapiens, 672 h, time 28 day, read-out: TGI
ASPC1 = experiment: Antiproliferative activity against human ASPC1 cells harbouring KRAS G12D mutant and RON delta 165 assessed as cell growth inhibition measured after 72 hrs by MTS assay; format: functional
[5] = target: T1, Macrophage-stimulating protein receptor; experiment: Inhibition of RON (unknown origin)
[6] = Cmax in Sprague-Dawley rat at 5 mg/kg, po measured after 24 hrs by LC/MS/MS analysis; format: ADME, organism-based; parameters: dose 5 mg/kg, time 24 hrs, route po; settings: in vivo
[7] = AUC(0 to infinity) in Sprague-Dawley rat at 1 mg/kg, iv measured after 24 hrs by LC/MS/MS analysis; format: ADME, organism-based; parameters: time 24 hrs, dose 1 mg/kg, route iv; settings: Sprague-Dawley, in vivo
[8] = Tmax in Sprague-Dawley rat at 5 mg/kg, po measured after 24 hrs by LC/MS/MS analysis; format: ADME, organism-based; settings: in vivo
[9] = AUC(0 to infinity) in Sprague-Dawley rat at 5 mg/kg, po measured after 24 hrs by LC/MS/MS analysis; format: ADME, organism-based; parameters: dose 5 mg/kg, time 24 hrs, route po; settings: Sprague-Dawley, in vivo
[10] = Oral bioavailability in Sprague-Dawley rat at 5 mg/kg measured after 24 hrs by LC/MS/MS analysis; format: ADME, organism-based; settings: Sprague-Dawley, in vivo
[11] = Half life in Sprague-Dawley rat at 1 mg/kg, iv measured after 24 hrs by LC/MS/MS analysis; format: ADME, organism-based; settings: in vivo
[12] = target: Hepatocyte growth factor receptor (Homo sapiens, UniProt P08581); experiment: Inhibition of c-Met (unknown origin)
[13] = Metabolic stability in human liver microsomes assessed as parent compound remaining after 30 mins in presence of NADPH by LC/MS/MS analysis; format: ADME, Microsome; settings: read-out: Stability
[14] = Half life in Sprague-Dawley rat at 5 mg/kg, po measured after 24 hrs by LC/MS/MS analysis; format: ADME, organism-based; settings: in vivo
[15] = Volume of distribution at steady state in Sprague-Dawley rat at 1 mg/kg, iv measured after 24 hrs by LC/MS/MS analysis; format: ADME, organism-based; settings: in vivo, read-out: Vdss
[16] = Clearance in Sprague-Dawley rat at 1 mg/kg, iv measured after 24 hrs by LC/MS/MS analysis; format: ADME, organism-based; settings: Sprague-Dawley, in vivo
HT-29 [17] = experiment: Antiproliferative activity against human HT-29 cells harbouring wild-type KRAS and RON delta 160 assessed as cell death rate at 5 uM measured after 48 hrs by trypan blue exclusion assay relative to control; format: functional
KM12C [18] = experiment: Antiproliferative activity against human KM12-C cells harbouring wild-type KRAS and RON delta 160 assessed as cell death rate at 5 uM measured after 48 hrs by trypan blue exclusion assay relative to control; format: functional

Hepatocyte growth factor receptor, sequence (P08581 whole entry): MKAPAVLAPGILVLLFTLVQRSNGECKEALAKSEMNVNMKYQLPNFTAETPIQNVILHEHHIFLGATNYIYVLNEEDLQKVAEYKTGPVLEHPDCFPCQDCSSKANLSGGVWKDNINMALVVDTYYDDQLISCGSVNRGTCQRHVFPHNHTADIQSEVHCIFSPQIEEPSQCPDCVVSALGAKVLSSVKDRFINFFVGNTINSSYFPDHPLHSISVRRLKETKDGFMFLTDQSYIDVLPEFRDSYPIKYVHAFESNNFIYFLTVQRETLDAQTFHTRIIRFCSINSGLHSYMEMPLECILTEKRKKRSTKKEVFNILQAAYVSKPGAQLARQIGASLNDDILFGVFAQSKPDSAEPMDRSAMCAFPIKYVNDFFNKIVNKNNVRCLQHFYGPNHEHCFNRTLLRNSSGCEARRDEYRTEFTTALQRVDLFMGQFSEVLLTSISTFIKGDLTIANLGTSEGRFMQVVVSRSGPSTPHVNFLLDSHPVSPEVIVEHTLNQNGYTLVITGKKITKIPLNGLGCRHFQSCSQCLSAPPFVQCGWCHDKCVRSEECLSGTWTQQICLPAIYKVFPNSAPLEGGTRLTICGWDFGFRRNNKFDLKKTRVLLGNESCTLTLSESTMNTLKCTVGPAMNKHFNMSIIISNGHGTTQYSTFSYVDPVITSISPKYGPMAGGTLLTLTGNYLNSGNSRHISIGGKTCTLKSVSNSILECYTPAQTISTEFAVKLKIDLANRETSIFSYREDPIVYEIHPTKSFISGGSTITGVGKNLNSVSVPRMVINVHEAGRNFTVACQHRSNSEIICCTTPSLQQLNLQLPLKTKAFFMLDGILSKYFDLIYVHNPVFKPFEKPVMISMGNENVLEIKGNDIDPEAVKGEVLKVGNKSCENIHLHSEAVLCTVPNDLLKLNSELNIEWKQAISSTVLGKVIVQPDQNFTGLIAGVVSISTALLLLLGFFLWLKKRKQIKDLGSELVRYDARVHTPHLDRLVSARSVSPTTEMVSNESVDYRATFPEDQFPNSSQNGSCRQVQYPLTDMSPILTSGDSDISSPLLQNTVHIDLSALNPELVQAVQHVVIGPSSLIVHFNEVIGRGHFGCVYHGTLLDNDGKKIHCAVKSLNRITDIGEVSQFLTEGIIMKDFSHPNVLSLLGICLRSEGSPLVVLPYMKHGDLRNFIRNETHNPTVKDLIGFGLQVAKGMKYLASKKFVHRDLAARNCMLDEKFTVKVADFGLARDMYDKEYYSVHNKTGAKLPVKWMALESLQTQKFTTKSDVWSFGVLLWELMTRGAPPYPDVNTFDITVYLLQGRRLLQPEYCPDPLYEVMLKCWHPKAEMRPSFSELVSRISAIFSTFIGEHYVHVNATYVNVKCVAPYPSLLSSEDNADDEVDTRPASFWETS

| Compound | GI50 (HT-29 [1]) [nM] | GI50 (SW-620) [nM] | IC50 [3] [nM] | GI50 (KM12C [2]) [nM] | also measured |
| --- | --- | --- | --- | --- | --- |
| CCOc1ccn(-c2ccc(F)cc2)c(=O)c1C(=O)Nc1ccc(Oc2ccnc3cc(-c4ccc(CN5CCC(OC)CC5)cn4)sc23)c(F)c1 | 1770 | 700 | 0.73 | 19 | – |
| C[C@@H](Oc1cc(-c2cnn(C3CCNCC3)c2)cnc1N)c1c(Cl)ccc(F)c1Cl [CRIZOTINIB] | 4000 | – | – | – | GI50 (CAPAN-1): 5120 nM; GI50 (SW480): > 10000 nM; GI50 (MIA PaCa-2): 1460 nM; GI50 (PANC-1): 2560 nM; GI50 (PANC-03-27): 6350 nM; inhibition in vivo at 10 mg/kg [4]: 27.5%; GI50 (ASPC1): 2380 nM |
| O=C(Nc1ccc(Oc2ccnc3cc(-c4ccc(CN5CCOCC5)cn4)sc23)c(F)c1)c1c(OCCC2CC2)ccn(-c2ccc(F)cc2)c1=O | 860 | 2370 | 0.72 | 11 | – |
| CCOc1ccn(-c2ccc(F)cc2)c(=O)c1C(=O)Nc1ccc(Oc2ccnc3cc(-c4ccc(CN5CCC(F)(F)C5)cn4)sc23)c(F)c1 | 4880 | 620 | 0.86 | 9 | – |
| CCOc1ccn(-c2ccc(Cl)cc2)c(=O)c1C(=O)Nc1ccc(Oc2ccnc3cc(-c4ccc(CN5CCOCC5)cn4)sc23)c(F)c1 | 600 | 580 | – | 25 | – |
| CCOc1ccn(-c2ccc(F)cc2)c(=O)c1C(=O)Nc1ccc(Oc2ccnc3cc(-c4ccccn4)sc23)c(F)c1 | 3140 | 1550 | 0.48 | 22 | – |
| COc1ccc2c(Oc3ccc(NC(=O)c4c(C)n(CC(C)(C)O)n(-c5ccccc5)c4=O)cc3F)ccnc2c1 | – | – | – | – | IC50 [12]: 9 nM |
| CCOc1ccn(-c2ccc(F)cc2)c(=O)c1C(=O)Nc1ccc(Oc2ccnc3cc(-c4ccc(CNCCOC)cn4)sc23)c(F)c1 | 590 | 440 | – | 3400 | – |
| Cc1ccc(C(=O)Nc2ccc(Oc3cc4cnn(C)c4cc3-c3cn[nH]c3)c(F)c2)c(=O)n1-c1ccc(F)cc1 [MERESTINIB] | – | – | – | – | IC50 [5]: 12 nM |
| CC(C)COc1ccn(-c2ccc(F)cc2)c(=O)c1C(=O)Nc1ccc(Oc2ccnc3cc(-c4ccc(CN5CCOCC5)cn4)sc23)c(F)c1 | 160 | 380 | 0.62 | 3 | Activity (HT-29 [17]): Active; Activity (KM12C [18]): Active |
| CCOc1ccn(-c2ccc(F)cc2)c(=O)c1C(=O)Nc1ccc(Oc2ccnc3cc(-c4ccc(CN5CC(F)C5)cn4)sc23)c(F)c1 | 1250 | 200 | 0.63 | 16 | – |
| CCOc1ccn(-c2ccc(C(F)(F)F)cc2)c(=O)c1C(=O)Nc1ccc(Oc2ccnc3cc(-c4ccc(CN5CCOCC5)cn4)sc23)c(F)c1 | – | – | 17.3 | – | – |
| CCCOc1ccn(-c2ccc(F)cc2)c(=O)c1C(=O)Nc1ccc(Oc2ccnc3cc(-c4ccc(CN5CCOCC5)cn4)sc23)c(F)c1 | 500 | 590 | 0.49 | 10 | Activity (HT-29 [17]): Active; Activity (KM12C [18]): Active |
| CCOc1ccn(-c2ccc(F)cc2)c(=O)c1C(=O)Nc1ccc(Oc2ccnc3cc(-c4ccc(CN5CCN(C)CC5)cn4)sc23)c(F)c1 | – | 680 | – | 9 | – |
| CCOc1ccn(-c2ccc(F)cc2)c(=O)c1C(=O)Nc1ccc(Oc2ccnc3cc(-c4ccc(OCCN5CCOCC5)cn4)sc23)c(F)c1 | 2770 | 1560 | 2.39 | 38 | – |
| CCOc1ccn(-c2cccc(F)c2)c(=O)c1C(=O)Nc1ccc(Oc2ccnc3cc(-c4ccc(CN5CCOCC5)cn4)sc23)c(F)c1 | 395 | 640 | 0.74 | 42 | Activity (HT-29 [17]): Active; Activity (KM12C [18]): Active |
| CCOc1ccn(-c2ccccc2)c(=O)c1C(=O)Nc1ccc(Oc2ccnc3cc(-c4ccc(CN5CCOCC5)cn4)sc23)c(F)c1 | – | 260 | – | 3 | Activity (HT-29 [17]): Active; Activity (KM12C [18]): Active |
| CCCCOc1ccn(-c2ccc(F)cc2)c(=O)c1C(=O)Nc1ccc(Oc2ccnc3cc(-c4ccc(CN5CCOCC5)cn4)sc23)c(F)c1 | 840 | 1000 | 0.98 | 15 | – |
| CCOc1ccn(-c2ccc(F)cc2)c(=O)c1C(=O)Nc1ccc(Oc2ccnc3cc(-c4ccc(CN5CCC(F)CC5)cn4)sc23)c(F)c1 | 2440 | 560 | 1.82 | 17 | – |
| CCOc1ccn(-c2ccc(F)cc2)c(=O)c1C(=O)Nc1ccc(Oc2ccnc3cc(-c4ccc(CN5CCOCC5)cn4)sc23)cc1Cl | 1560 | 2840 | – | 6 | – |
| CCOc1ccn(-c2ccc(F)cc2)c(=O)c1C(=O)Nc1ccc(Oc2ccnc3cc(-c4ccc(CN5CCOCC5)cn4)sc23)c(Cl)c1 | 660 | 1090 | – | 15 | – |
| CCOc1ccn(-c2ccc(F)cc2)c(=O)c1C(=O)Nc1ccc(Oc2ccnc3cc(-c4ccc(CCN5CCOCC5)cn4)sc23)c(F)c1 | 650 | 830 | 2.83 | 26 | – |

Further lines, with some results ahead:

| GI50 (HT-29 [1]) [nM] | GI50 (SW-620) [nM] | IC50 [3] [nM] | Compound | GI50 (KM12C [2]) [nM] | also measured |
| --- | --- | --- | --- | --- | --- |
| – | – | 75.6 | CN1CCC(COc2ccn(-c3ccc(F)cc3)c(=O)c2C(=O)Nc2ccc(Oc3ccnc4cc(-c5ccc(CN6CCOCC6)cn5)sc34)c(F)c2)C1 (configuration not stated) | – | – |
| 650 | 540 | 0.82 | CCOc1ccn(-c2ccc(F)cc2)c(=O)c1C(=O)Nc1ccc(Oc2ccnc3cc(-c4ccc(CN5CCC(F)C5)cn4)sc23)c(F)c1 (configuration not stated) | 16 | – |
| 570 | 810 | 0.41 | CCOc1ccn(-c2ccc(F)cc2)c(=O)c1C(=O)Nc1ccc(Oc2ccnc3cc(-c4cn(C)cn4)sc23)c(F)c1 | 27 | IC50 [5]: 9 nM; Cmax [6]: 810 ng/mL; AUC(0-inf) [7]: 4370 ng·h/mL; Tmax [8]: 2.67 h; AUC(0-inf) [9]: 6670 ng·h/mL; bioavailability [10]: 30.5%; half-life [11]: 3.03 h; IC50 [12]: 4 nM; remaining at 0.5 h [13]: 49%; half-life [14]: 3.79 h; Vd [15]: 0.64 L/kg; clearance [16]: 3.83 mL/min/kg |
| 970 | 1920 | 2.15 | CN(C)CCOc1ccn(-c2ccc(F)cc2)c(=O)c1C(=O)Nc1ccc(Oc2ccnc3cc(-c4ccc(CN5CCOCC5)cn4)sc23)c(F)c1 | 35 | – |
| 1640 | 1030 | 0.16 | CCOc1ccn(-c2ccc(F)cc2)c(=O)c1C(=O)Nc1ccc(Oc2ccnc3cc(-c4ccc(CN5CC(OC)C5)cn4)sc23)c(F)c1 | 27 | – |
| 7710 | 360 | 0.69 | CCOc1ccn(-c2ccc(F)cc2)c(=O)c1C(=O)Nc1ccc(Oc2ccnc3cc(-c4ccc(CN5CCC(OC)C5)cn4)sc23)c(F)c1 (configuration not stated) | 23 | – |
| 5610 | 3660 | 5.47 | CN1CCC(Oc2ccn(-c3ccc(F)cc3)c(=O)c2C(=O)Nc2ccc(Oc3ccnc4cc(-c5ccc(CN6CCOCC6)cn5)sc34)c(F)c2)C1 (configuration not stated) | 55 | – |
| 970 | 780 | 0.48 | CCOc1ccn(-c2ccc(F)cc2)c(=O)c1C(=O)Nc1ccc(Oc2ccnc3cc(-c4ccc(CN5CC(F)(F)C5)cn4)sc23)c(F)c1 | 24 | – |
| 642 | 1350 | 2.25 | CCOc1ccn(-c2ccc(F)cc2)c(=O)c1C(=O)Nc1cc(F)c(Oc2ccnc3cc(-c4ccc(CN5CCOCC5)cn4)sc23)c(F)c1 | 40 | – |
| 660 | 7370 | 6 | CCOc1ccn(-c2ccc(F)cc2)c(=O)c1C(=O)Nc1ccc(Oc2ccnc3cc(-c4ccc(CN5CCC(F)(F)CC5)cn4)sc23)c(F)c1 | 27 | – |
